ChEMBL document CHEMBL1201862, “PubChem BioAssay data set” (2004)
The source made the active and inactive calls.

Tests used:
Format in all cases: functional
Protein RecA = target: T1, Protein RecA (Mycobacterium tuberculosis, UniProt P9WHJ3); assay: Fluorescence Cell-Free Homogeneous Dose Retest to Identify Inhibitors of RecA-Intein Splicing Activity. [Related pubchem assays (depositor defined):AID2097, AID2223, AID489010, AID492950]
T1 sequence (P9WHJ3 whole entry): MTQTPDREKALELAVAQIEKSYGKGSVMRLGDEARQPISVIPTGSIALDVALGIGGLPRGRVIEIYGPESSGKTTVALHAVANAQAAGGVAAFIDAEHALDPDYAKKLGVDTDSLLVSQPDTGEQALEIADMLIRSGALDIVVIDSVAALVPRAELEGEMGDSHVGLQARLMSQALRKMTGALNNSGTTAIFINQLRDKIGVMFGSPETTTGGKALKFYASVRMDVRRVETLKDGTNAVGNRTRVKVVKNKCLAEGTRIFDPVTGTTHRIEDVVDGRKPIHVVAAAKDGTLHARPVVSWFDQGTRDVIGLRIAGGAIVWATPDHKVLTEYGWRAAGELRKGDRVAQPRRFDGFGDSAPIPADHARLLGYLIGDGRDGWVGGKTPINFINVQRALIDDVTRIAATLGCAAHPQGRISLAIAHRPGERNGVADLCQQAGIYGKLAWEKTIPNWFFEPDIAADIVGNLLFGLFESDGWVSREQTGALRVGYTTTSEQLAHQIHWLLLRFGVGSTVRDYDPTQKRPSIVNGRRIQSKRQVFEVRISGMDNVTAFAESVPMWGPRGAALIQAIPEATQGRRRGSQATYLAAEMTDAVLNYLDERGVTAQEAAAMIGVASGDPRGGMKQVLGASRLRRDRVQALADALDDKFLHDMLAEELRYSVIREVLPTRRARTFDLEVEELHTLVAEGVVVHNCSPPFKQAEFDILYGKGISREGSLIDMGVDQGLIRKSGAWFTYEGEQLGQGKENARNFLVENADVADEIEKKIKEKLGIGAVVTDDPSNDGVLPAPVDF

[1] = target: T2, Replicative DNA helicase DnaB (Mycobacterium tuberculosis, UniProt P9WMR3); assay: DnaB intein splicing inhibitors, dose response, biochemical, cell-free fluorescence (AID 449749)
T2 sequence (P9WMR3 whole entry): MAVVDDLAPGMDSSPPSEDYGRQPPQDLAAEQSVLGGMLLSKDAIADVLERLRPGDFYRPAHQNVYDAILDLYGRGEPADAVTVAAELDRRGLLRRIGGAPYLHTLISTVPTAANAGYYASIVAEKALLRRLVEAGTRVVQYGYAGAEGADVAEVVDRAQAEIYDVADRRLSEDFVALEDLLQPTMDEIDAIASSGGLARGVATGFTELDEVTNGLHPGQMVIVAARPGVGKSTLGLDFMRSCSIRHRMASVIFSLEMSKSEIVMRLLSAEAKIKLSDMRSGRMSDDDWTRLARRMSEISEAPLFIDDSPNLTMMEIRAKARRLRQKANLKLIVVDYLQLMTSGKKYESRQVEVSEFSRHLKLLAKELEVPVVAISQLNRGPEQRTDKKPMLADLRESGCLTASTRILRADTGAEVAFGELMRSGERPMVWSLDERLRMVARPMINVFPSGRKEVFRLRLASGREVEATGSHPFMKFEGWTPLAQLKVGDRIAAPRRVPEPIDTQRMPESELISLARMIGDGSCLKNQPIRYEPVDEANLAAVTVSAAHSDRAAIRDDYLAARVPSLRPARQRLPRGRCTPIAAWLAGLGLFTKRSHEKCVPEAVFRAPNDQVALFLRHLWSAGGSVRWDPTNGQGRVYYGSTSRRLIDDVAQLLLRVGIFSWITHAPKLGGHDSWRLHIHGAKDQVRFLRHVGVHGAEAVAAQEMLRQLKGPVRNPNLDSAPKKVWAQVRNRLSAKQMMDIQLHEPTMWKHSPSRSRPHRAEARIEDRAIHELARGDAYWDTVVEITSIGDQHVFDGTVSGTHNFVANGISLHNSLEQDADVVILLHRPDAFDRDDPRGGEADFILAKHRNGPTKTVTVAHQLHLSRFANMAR

[2] = target: T3, Sentrin-specific protease 8 (Homo sapiens, UniProt Q96LD8);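 further: luminescence read-out of SENP8 inhibition, dose-response confirmation following an ultra-high-throughput screen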
T3 sequence (Q96LD8 whole entry): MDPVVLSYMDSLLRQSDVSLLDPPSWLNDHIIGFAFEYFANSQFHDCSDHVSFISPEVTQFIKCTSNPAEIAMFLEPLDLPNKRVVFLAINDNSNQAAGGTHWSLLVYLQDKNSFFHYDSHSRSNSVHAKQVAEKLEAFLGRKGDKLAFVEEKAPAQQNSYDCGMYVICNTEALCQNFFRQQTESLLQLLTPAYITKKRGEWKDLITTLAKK

| Structure (SMILES) | EC50 (Protein RecA) | AC50 [1] | IC50 [2] |
| --- | --- | --- | --- |
| O=C(Nc1ccccc1)c1nnsc1[S+]([O-])c1ccc(Cl)cc1 (stereo not drawn) | 5.92 µM (active) | 0.964 µM (active) |  |
| O=C1C=C(Nc2ccccc2)c2ccccc2C1=O | 0.723 µM (active) | 0.664 µM (active) | 9.45 µM (active) |
| CC1OC(Nc2cccc3ccccc23)C(O)C(O)C1O (stereo not drawn) | 75.1 µM (active) | > 380 µM (inactive) | 6.06 µM (active) |
